Source: ChEMBL document CHEMBL1136997, “An atom economic synthesis and antitubercular evaluation of novel spiro-cyclohexanones” (2009)
Converted amounts (≈) assume the structure as drawn.

System: Mycobacterium tuberculosis
Experiment: Antimycobacterial activity against log phase culture of Mycobacterium tuberculosis H37Rv by agar dilution method
Assay type: functional

Structure (SMILES)	MIC [µg/mL]
CN1C[C@H](c2cccc(F)c2)[C@]2(CCC/C(=C\c3cccc(F)c3)C2=O)[C@]12C(=O)c1cccc3cccc2c13	12.5 (≈ 24.1 µM)
O=C1c2cccc3cccc(c23)[C@]12N1CSC[C@H]1[C@H](c1ccccc1)[C@]21CCC/C(=C\c2ccccc2)C1=O	6.25 (≈ 11.8 µM)
O=C1c2cccc3cccc(c23)[C@]12N1CSC[C@H]1[C@H](c1ccc(Cl)cc1)[C@]21CCC/C(=C\c2ccc(Cl)cc2)C1=O	6.25 (≈ 10.5 µM)
Cc1ccc(/C=C2\CCC[C@@]3(C2=O)[C@@H](c2ccc(C)cc2)[C@H](c2ccccc2)N[C@@]32C(=O)c3cccc4cccc2c34)cc1	6.25 (≈ 10.9 µM)
O=C1c2cccc3cccc(c23)[C@]12N1CSC[C@H]1[C@H](c1ccccc1Cl)[C@]21CCC/C(=C\c2ccccc2Cl)C1=O	0.78 (≈ 1.31 µM)
CN1C[C@H](c2ccc(Cl)cc2Cl)[C@]2(CCC/C(=C\c3ccc(Cl)cc3Cl)C2=O)[C@]12C(=O)c1cccc3cccc2c13	3.13 (≈ 5.04 µM)
CN1C[C@H](c2cccc3ccccc23)[C@]2(CCC/C(=C\c3cccc4ccccc34)C2=O)[C@]12C(=O)c1cccc3cccc2c13	6.25 (≈ 10.7 µM)
CN1C[C@H](c2ccc(Cl)cc2)[C@]2(CCC/C(=C\c3ccc(Cl)cc3)C2=O)[C@]12C(=O)c1cccc3cccc2c13	12.5 (≈ 22.6 µM)
Cc1ccccc1/C=C1\CCC[C@@]2(C1=O)[C@@H](c1ccccc1C)CN(C)[C@@]21C(=O)c2cccc3cccc1c23	12.5 (≈ 24.4 µM)
CN1C[C@H](c2ccccc2Cl)[C@]2(CCC/C(=C\c3ccccc3Cl)C2=O)[C@]12C(=O)c1cccc3cccc2c13	6.25 (≈ 11.3 µM)
Cc1ccc(/C=C2\CCC[C@@]3(C2=O)[C@@H](c2ccc(C)cc2)[C@@H]2CCCN2[C@@]32C(=O)c3cccc4cccc2c34)cc1	6.25 (≈ 11.6 µM)
O=C1c2cccc3cccc(c23)[C@]12N1CCC[C@H]1[C@H](c1ccc(Cl)cc1)[C@]21CCC/C(=C\c2ccc(Cl)cc2)C1=O	1.78 (≈ 3.08 µM)
COc1ccc(/C=C2\CCC[C@@]3(C2=O)[C@@H](c2ccc(OC)cc2)CN(C)[C@@]32C(=O)c3cccc4cccc2c34)cc1	25 (≈ 46 µM)
O=C1c2cccc3cccc(c23)[C@]12N1CSC[C@H]1[C@H](c1ccc(F)cc1)[C@]21CCC/C(=C\c2ccc(F)cc2)C1=O	1.76 (≈ 3.12 µM)
O=C1c2cccc3cccc(c23)[C@]12N1CCC[C@H]1[C@H](c1ccccc1Cl)[C@]21CCC/C(=C\c2ccccc2Cl)C1=O	3.13 (≈ 5.41 µM)
O=C1c2cccc3cccc(c23)[C@]12N1CSC[C@H]1[C@H](c1ccc(Cl)cc1Cl)[C@]21CCC/C(=C\c2ccc(Cl)cc2Cl)C1=O	0.4 (≈ 0.601 µM)
O=C1c2cccc3cccc(c23)[C@]12N[C@@H](c1ccccc1)[C@H](c1ccccc1Cl)[C@]21CCC/C(=C\c2ccccc2Cl)C1=O	0.78 (≈ 1.27 µM)
Cc1ccc(/C=C2\CCC[C@@]3(C2=O)[C@@H](c2ccc(C)cc2)CN(C)[C@@]32C(=O)c3cccc4cccc2c34)cc1	25 (≈ 48.9 µM)
O=C1c2cccc3cccc(c23)[C@]12N1CCC[C@H]1[C@H](c1ccccc1)[C@]21CCC/C(=C\c2ccccc2)C1=O	12.5 (≈ 24.5 µM)
O=C1c2cccc3cccc(c23)[C@]12N[C@@H](c1ccccc1)[C@H](c1ccc(Cl)cc1)[C@]21CCC/C(=C\c2ccc(Cl)cc2)C1=O	6.25 (≈ 10.2 µM)
Cc1ccccc1/C=C1\CCC[C@@]2(C1=O)[C@@H](c1ccccc1C)[C@@H]1CSCN1[C@@]21C(=O)c2cccc3cccc1c23	0.78 (≈ 1.4 µM)
O=C1c2cccc3cccc(c23)[C@]12N[C@@H](c1ccccc1)[C@H](c1ccc(F)cc1)[C@]21CCC/C(=C\c2ccc(F)cc2)C1=O	6.25 (≈ 10.7 µM)
Cc1ccc(/C=C2\CCC[C@@]3(C2=O)[C@@H](c2ccc(C)cc2)[C@@H]2CSCN2[C@@]32C(=O)c3cccc4cccc2c34)cc1	6.25 (≈ 11.2 µM)
O=C1c2cccc3cccc(c23)[C@]12N[C@@H](c1ccccc1)[C@H](c1ccc(Cl)cc1Cl)[C@]21CCC/C(=C\c2ccc(Cl)cc2Cl)C1=O	0.4 (≈ 0.585 µM)
O=C1c2cccc3cccc(c23)[C@]12N[C@@H](c1ccccc1)[C@H](c1ccccc1)[C@]21CCC/C(=C\c2ccccc2)C1=O	3.13 (≈ 5.74 µM)
CN1C[C@H](c2ccccc2)[C@]2(CCC/C(=C\c3ccccc3)C2=O)[C@]12C(=O)c1cccc3cccc2c13	12.5 (≈ 25.8 µM)
O=C1c2cccc3cccc(c23)[C@]12N1CCC[C@H]1[C@H](c1ccc(F)cc1)[C@]21CCC/C(=C\c2ccc(F)cc2)C1=O	1.78 (≈ 3.26 µM)
Cc1ccccc1/C=C1\CCC[C@@]2(C1=O)[C@@H](c1ccccc1C)[C@H](c1ccccc1)N[C@@]21C(=O)c2cccc3cccc1c23	1.78 (≈ 3.1 µM)
